Test results published in paper PMC7180452, “Purine and Purine Isostere Derivatives of Ferrocene: An Evaluation of ADME, Antitumor and Electrochemical Properties” (Molecules, 2020).

Key:
[1] = Square-wave and cyclic voltammetry on glassy carbon electrode; assay type: physicochemical; conditions: SWV, 0.5 mol/L NaClO4, pH 9, vs Ag/AgCl
Excerpt: The electrochemical properties of 6-chloro-7-deazapurine and 6-chloropurine derivatives of ferrocene 11c, 13a and 15b on a glassy carbon electrode were studied using cyclic (CV) and square-wave voltammetry (SWV) in aqueous electrolyte solutions over a wide pH range. The pH was varied from 2 to 10 in order to determine the effect of pH on the voltammograms (net peak currents and potentials). […] The pH of the solution affects the voltammetric response of this compound, i.e., the oxidation of evaluated compounds 11c, 13a and 15b is strongly dependent on it.
The forward (if) and backward (ib) components of the net response (Δi = if − ib) are shown as well (inset in Figure 2). […] The peak P1 occurs in all supporting electrolytes (i.e., at 2 ≤ pH ≤ 10), while the peak P2 is only observed at pH ≥ 9 (see Figure 1). The potential of peak P1 is pH-independent. Comparing to the literature data, peak P1 can be ascribed to the following charge transfer reaction [Fe^II(C5H5)2] ⇌ [Fe^III(C5H5)2]^+ + e^− [44, 48].
All chemicals used in the experiments were of the best grade commercially available (Sigma-Aldrich) and were used without further purification. Stock standard solutions of compounds 11c, 13a, 15b (c = 2.0 × 10^−3 mol/L) and 6-chloropurine (c = 1.2 × 10^−2 mol/L) were prepared from dry pure substances in dimethyl sulfoxide (DMSO, p.a.), purchased from Kemika (Zagreb, Croatia). Stock standard solution of ethynyl ferrocene (c = 1.1 × 10^−2 mol/L) was prepared from dry pure substance in ethanol (Kemika). For the supporting electrolyte, analytical grade NaClO4 (Kemika) was used. Water was deionized by the Millipore Milli-Q system to the resistivity ≥ 18 MΩcm. Voltammetric measurements were carried out using the computer-controlled electrochemical system „PGSTAT 101“ (Eco-Chemie, Utrecht, The Netherlands), controlled by the electrochemical software “NOVA 1.5”. A three-electrode system (BioLogic, Claix, France) with glassy carbon electrode (GCE) of 3 mm in diameter as a working electrode, Ag/AgCl (3 mol/L NaCl) as a reference electrode and a platinum wire as a counter electrode were used. All potentials were expressed versus Ag/AgCl (3 mol/L NaCl) reference electrode. The supporting electrolyte (0.5 mol/L NaClO4), adjusted to the desired pH value, was placed in the electrochemical cell and the required aliquot of the standard analyte solution was added. The solution in the electrochemical cell was degassed with high purity nitrogen for 10 min before measurement, and the nitrogen blanket was maintained thereafter. Before each run, the glassy carbon working electrode was polished with diamond suspension in spray (grain size 6 µm) and rinsed with ethanol and deionized water. All experiments were performed at room temperature. The presented results are reported as the mean value of three independent measurements.

[2] = test system: metastatic colorectal adenocarcinoma (SW620); assay: In vitro antiproliferative activity, SW620; assay type: cell-based, human; conditions: SW620 cells
Procedure: (§1) Antiproliferative activity of compounds 11a−11c, 12a−12c, 13a−13c, 14a−14c, 15a−15c, 16a, 23a−23c, 24a−24c, 25a−25c, 34a−34c and 35a−35c was evaluated in vitro on four human tumor cell lines (American Type Culture Collection, Manassas, VA, USA): metastatic colorectal adenocarcinoma (SW620), ductal pancreatic adenocarcinoma (CFPAC-1), hepatocellular carcinoma (HepG2) and cervical carcinoma (HeLa) as well as normal skin fibroblasts (HFF).

[3] = test system: ductal pancreatic adenocarcinoma (CFPAC-1); assay: In vitro antiproliferative activity, CFPAC-1; assay type: cell-based, human; conditions: CFPAC-1 cells
Procedure: as §1

[4] = test system: hepatocellular carcinoma (HepG2); assay: In vitro antiproliferative activity, HepG2; assay type: cell-based, human; conditions: HepG2 cells
Procedure: as §1

[5] = test system: cervical carcinoma (HeLa); assay: In vitro antiproliferative activity, HeLa; assay type: cell-based, human; conditions: HeLa cells
Procedure: as §1

[6] = test system: normal skin fibroblasts (HFF); assay: Cytotoxicity on non-tumor cells, HFF; assay type: cell-based, human
Procedure: as §1

[7] = pH 7.4
Procedure: The distribution coefficient Chrom logD, a parameter used to assess the lipophilicity of compounds [36, 37], was determined for novel purine and purine isosteres with a ferrocene motif as shown in Table 1.
The distribution coefficient, Chrom logD, was determined from compounds’ gradient retention times by employing a high-performance liquid chromatography method with fast acetonitrile gradient. Compounds were prepared for analysis in final concentration of 1.25 mM by dilution of 10 mM stock solutions in DMSO with acetonitrile. Aqueous mobile phase was 50 mM ammonium acetate adjusted with ammonia solution to pH 7.4 and the organic mobile phase was acetonitrile. A reversed phase HPLC column Luna C18, 50 × 3 mm i.d., 5 µm particle size (Phenomenex, Torrance, CA, USA) was used for analysis. Sample injection volume was 2 µL and the flow rate was 1 mL min^−1. All compounds were analysed in duplicates. Fast-gradient elution was as follows: from 0 to 100% of acetonitrile (0−3 min), 100% of acetonitrile (3.0−3.5 min), from 100 to 0% of acetonitrile (3.5−3.7 min), and re-equilibration with 100% of aqueous mobile phase (3.7−5.0 min). All measurements were performed on an HPLC-DAD instrument Agilent 1100 Series (Agilent Technologies, Santa Clara, CA, USA) coupled with a mass spectrometer Micromass Quattro API (Waters, MA, USA). MassLynx software, version 4.1 (Waters, Manchester, UK) was used for data acquisition and processing. Before compound analysis, a calibration step was performed. A set of standard compounds with literature CHI values [36] were plotted against gradient retention times to obtain a calibration equation, which was used to determine CHI value from the compounds’ retention times.

Structure (SMILES)	Oxidation peak P2 potential (triazole) [1]	IC50 [2]	IC50 [3]	IC50 [4]	IC50 [5]	IC50 [6]	Chrom logD [7]
C#Cc1cc[cH-]c1.[Fe+2].c1cc[cH-]c1 [ethynyl ferrocene, reference compound]	No anodic peak P2 was detected						
Clc1ncnc2nc[nH]c12 [6-chloropurine, reference compound]	No anodic peak P2 was detected						
Ic1ccc2c(ccn2Cc2cn(C[c-]3cccc3)nn2)c1.[Fe+2].c1cc[cH-]c1 [Compound 25a, 5-Iodo-1-[1-(1-ferrocenylmethyl-1,2,3-triazol-4-yl)methyl]-1H-indole]		> 100 µM	> 100 µM	> 100 µM	78.5 ± 9.36 µM	> 100 µM	>6.57
[Fe+2].c1cc[cH-]c1.c1ccc2c(c1)ccn2Cc1cn(-[c-]2cccc2)nn1 [Compound 24c, 1-[1-(1-Ferrocenyl-1,2,3-triazol-4-yl)methyl]-1H-indole]		> 100 µM	84.5 ± 15.8 µM	90.9 ± 11.5 µM	88.1 ± 1.18 µM	> 100 µM	>6.57
